Data taken from ChEMBL document CHEMBL1201862, “PubChem BioAssay data set” (2004).
Active and inactive are the calls of the source.

Key:
[1] = system: Streptococcus sp. 'group A'; experiment: Streptococcus pyogenes SK(-)GAS viability under kanamycin – luminescence, BacTiterGlo, confirmation, counter-screen for streptokinase expression inhibitor project, dose response (AID 1900); format: functional, organism-based
Streptokinase A = target: T1, Streptokinase A (Streptococcus pyogenes serotype M1, UniProt P10520); experiment: viability-normalized secreted streptokinase activity reduction – plasminogen activation absorbance, OD405, dose response (AID 1914); format: functional, Streptococcus pyogenes M1 GAS;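 note: secreted streptokinase activity via plasminogen activation per viability signal from cell pellet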
T1 sequence (P10520 whole entry): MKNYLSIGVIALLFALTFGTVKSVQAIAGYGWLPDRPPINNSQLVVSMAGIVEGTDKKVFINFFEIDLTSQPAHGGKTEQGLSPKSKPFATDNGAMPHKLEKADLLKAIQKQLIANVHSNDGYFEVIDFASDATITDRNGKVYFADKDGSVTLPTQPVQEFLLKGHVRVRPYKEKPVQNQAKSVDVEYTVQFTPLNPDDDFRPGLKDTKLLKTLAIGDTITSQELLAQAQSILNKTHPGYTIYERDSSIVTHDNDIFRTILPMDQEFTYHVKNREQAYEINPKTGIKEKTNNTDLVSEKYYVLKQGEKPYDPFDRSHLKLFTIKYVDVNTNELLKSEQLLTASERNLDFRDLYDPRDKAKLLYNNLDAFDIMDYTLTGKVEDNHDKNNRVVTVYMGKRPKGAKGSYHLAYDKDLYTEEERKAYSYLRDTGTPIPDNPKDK

[2] = HPDE-C7 pancreatic duct cell viability loss – fluorescence, HTS (AID 430); format: functional, cell-based; settings: Homo sapiens
[3] = viability loss of HPDE-C7K cells – cell-based, fluorescence, HTS, primary screen (AID 431); format: functional; settings: Homo sapiens
Streptococcus = experiment: GAS UMAA2166 growth inhibition – luminescence, BacTiterGlo, counter-screen for streptokinase expression inhibitor project, dose response (AID 1915); format: functional, organism-based;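 note: potency for reduction of bacterial viability or growth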
[4] = target: Heat shock protein HSP 90-alpha (Homo sapiens, UniProt P07900); format: functional, organism-based
HEK293 [5] = experiment: inhibition of NOD1-driven NF-kB reporter – cell-based, luminescence, uHTS, primary screen (AID 1578); format: functional; settings: Homo sapiens
HEK293 [6] = experiment: cells; format: functional, cell-based; settings: Homo sapiens
HEK293 [7] = experiment: cells; format: functional, cell-based; settings: Homo sapiens; remark: listed apart in the source
[8] = target: Nucleotide-binding oligomerization domain-containing protein 2 (Homo sapiens, UniProt Q9HC29); experiment: inhibition of NOD2-driven NF-kB reporter – cell-based, luminescence, uHTS, HEK293 (AID 1566); format: functional
Sequence of Nucleotide-binding oligomerization domain-containing protein 2 (Q9HC29 whole entry, the tested form may be a part): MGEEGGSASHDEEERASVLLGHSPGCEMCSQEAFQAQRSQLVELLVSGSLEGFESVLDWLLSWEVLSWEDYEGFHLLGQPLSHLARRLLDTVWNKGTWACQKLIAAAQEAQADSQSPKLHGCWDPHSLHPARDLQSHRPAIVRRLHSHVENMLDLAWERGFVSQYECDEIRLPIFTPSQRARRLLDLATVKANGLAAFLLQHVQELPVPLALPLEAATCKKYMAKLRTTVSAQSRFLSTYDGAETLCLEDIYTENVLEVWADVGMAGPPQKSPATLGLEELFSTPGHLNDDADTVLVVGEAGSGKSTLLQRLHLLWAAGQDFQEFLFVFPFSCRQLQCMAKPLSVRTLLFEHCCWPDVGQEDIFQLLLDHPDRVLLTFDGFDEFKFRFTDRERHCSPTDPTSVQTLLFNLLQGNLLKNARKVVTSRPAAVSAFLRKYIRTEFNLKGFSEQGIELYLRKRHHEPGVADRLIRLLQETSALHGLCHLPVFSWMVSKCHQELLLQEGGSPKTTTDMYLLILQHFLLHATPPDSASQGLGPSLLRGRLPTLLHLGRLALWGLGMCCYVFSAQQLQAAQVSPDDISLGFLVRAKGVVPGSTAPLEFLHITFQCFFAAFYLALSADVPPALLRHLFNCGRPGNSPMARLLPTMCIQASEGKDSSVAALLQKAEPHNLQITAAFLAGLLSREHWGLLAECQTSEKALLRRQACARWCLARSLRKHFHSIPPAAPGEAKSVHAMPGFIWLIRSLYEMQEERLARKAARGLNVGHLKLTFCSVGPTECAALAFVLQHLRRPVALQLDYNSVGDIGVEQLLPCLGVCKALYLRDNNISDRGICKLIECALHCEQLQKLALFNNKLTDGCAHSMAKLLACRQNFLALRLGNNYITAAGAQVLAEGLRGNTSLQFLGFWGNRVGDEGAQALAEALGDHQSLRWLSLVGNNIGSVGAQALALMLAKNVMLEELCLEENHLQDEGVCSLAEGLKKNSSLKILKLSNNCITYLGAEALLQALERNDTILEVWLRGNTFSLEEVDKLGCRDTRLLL

HEK293 [9] = experiment: NOD2 signaling inhibitors in MDP-stimulated cells, cell-based, uHTS, luminescence (AID 2001); format: functional; settings: Homo sapiens
HEK293 [10] = experiment: cells; format: functional, cell-based; settings: Homo sapiens; remark: listed apart in the source
[11] = microbe, parasite or virus in culture; format: functional; settings: Mycobacterium tuberculosis
[12] = target: T2, Oxysterols receptor LXR-beta (Homo sapiens, UniProt P55055); format: functional, cell-based;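 note: agonist activity at LXR measured by a cell-based luminescence readout across a dose range, run as a counterscreen for daf-12 agonists; HEK293 cells with Gal4-LXR fusion and GAL4-driven luciferase reporter; potency for activation of Gal4-LXR reporter so compounds are agonists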
T2 sequence (P55055 whole entry): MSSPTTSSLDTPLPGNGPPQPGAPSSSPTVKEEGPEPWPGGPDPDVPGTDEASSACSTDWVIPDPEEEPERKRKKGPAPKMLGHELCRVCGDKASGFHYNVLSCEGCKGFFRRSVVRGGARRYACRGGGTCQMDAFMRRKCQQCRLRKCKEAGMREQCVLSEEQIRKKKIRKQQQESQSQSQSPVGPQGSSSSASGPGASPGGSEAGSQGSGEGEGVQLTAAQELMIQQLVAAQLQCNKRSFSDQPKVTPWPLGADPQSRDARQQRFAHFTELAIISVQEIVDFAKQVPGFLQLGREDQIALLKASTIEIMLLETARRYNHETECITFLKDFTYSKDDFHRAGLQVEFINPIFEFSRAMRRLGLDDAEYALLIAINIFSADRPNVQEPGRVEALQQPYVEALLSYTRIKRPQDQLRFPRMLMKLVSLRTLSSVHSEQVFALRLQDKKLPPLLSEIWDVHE

[13] = target: Induced myeloid leukemia cell differentiation protein Mcl-1 (Homo sapiens, UniProt Q07820); format: functional
Sequence of Induced myeloid leukemia cell differentiation protein Mcl-1 (Q07820 whole entry): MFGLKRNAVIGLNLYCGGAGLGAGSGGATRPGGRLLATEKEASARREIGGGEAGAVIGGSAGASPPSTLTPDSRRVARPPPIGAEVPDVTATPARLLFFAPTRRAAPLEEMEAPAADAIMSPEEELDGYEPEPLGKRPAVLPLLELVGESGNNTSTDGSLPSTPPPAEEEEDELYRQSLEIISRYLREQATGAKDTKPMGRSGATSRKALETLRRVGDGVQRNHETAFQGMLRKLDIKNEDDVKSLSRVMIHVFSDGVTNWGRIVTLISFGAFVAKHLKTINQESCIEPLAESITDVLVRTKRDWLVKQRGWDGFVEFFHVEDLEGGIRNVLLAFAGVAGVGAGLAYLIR

[14] = viability loss in HeLa cells – cytotoxicity control for MgcRacGAP inhibitor project, dose response (AID 624300); format: functional
[15] = target: T3, Rac GTPase-activating protein 1 (Homo sapiens, UniProt Q9H0H5); experiment: blockers of MgcRacGAP-driven Rac1 GTP hydrolysis – biochemical, ADP Hunter fluorescence, primary and confirmatory, confirmation (AID 624330); format: functional
T3 sequence (Q9H0H5 whole entry): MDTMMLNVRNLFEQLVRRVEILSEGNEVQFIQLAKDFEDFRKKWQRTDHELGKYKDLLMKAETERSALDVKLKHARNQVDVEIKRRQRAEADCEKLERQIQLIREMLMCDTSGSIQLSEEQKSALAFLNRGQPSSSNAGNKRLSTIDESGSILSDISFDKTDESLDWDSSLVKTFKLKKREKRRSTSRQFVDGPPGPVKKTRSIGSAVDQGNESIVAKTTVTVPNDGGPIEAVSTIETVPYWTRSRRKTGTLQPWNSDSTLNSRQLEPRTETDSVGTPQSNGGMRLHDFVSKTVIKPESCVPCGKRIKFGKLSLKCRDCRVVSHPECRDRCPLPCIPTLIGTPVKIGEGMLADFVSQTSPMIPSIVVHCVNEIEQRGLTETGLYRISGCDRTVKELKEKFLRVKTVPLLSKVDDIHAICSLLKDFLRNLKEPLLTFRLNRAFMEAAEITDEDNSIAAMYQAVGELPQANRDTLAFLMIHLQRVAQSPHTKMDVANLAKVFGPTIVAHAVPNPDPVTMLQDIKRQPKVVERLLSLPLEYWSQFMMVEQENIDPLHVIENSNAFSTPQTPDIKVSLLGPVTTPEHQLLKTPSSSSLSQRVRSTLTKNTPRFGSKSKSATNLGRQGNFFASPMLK

Mu-type opioid receptor = Mu-type opioid receptor (Homo sapiens, UniProt P35372); format: functional, cell-based;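 note: U2OS cells with beta-arrestin recruitment to OPRM1 by beta-gal complementation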
Sequence of Mu-type opioid receptor (P35372 whole entry): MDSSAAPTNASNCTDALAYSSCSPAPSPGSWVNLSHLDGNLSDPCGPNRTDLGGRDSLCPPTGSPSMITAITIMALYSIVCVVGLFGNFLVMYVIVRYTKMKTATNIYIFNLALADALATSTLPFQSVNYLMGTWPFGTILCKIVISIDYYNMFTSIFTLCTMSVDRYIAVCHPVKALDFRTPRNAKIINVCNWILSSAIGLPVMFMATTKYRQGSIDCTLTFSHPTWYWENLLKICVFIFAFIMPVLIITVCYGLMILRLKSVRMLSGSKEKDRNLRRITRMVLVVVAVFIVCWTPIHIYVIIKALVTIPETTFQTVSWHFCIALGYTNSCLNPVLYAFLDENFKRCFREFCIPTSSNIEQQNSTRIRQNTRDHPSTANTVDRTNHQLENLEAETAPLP

[16] = target: 5-hydroxytryptamine receptor 2A (Mus musculus, UniProt P35363); format: functional, cell-based;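 note: CHO-K1 cells with tagged receptor and beta-arrestin; agonist potency measured as compound-induced activation of the receptor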
Sequence of 5-hydroxytryptamine receptor 2A (P35363 whole entry): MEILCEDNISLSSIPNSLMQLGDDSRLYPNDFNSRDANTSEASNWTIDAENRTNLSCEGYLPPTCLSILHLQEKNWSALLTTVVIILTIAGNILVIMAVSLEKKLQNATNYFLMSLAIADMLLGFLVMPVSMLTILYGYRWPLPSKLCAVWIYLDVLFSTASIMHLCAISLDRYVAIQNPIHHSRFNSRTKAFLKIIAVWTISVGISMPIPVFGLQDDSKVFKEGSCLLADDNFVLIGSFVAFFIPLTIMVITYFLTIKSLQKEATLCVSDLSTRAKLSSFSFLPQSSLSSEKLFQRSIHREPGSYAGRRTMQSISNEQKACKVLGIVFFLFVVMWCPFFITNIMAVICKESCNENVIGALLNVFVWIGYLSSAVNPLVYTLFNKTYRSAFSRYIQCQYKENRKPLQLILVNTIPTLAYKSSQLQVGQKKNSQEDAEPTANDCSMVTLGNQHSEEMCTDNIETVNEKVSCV

[17] = Dd2 parasite growth inhibition in erythrocytes – SYBR Green, dry powder samples, set 9, dose response (AID 1159568); format: functional, cell-based
cells [18] = format: functional, cell-based
[19] = target: T4, Trace amine-associated receptor 1 (Homo sapiens, UniProt Q96RJ0); experiment: Fluorescence-based cell-based high throughput dose response assay to identify agonists of the human trace amine associated receptor 1 (TAAR1).; format: functional
T4 sequence (Q96RJ0 whole entry): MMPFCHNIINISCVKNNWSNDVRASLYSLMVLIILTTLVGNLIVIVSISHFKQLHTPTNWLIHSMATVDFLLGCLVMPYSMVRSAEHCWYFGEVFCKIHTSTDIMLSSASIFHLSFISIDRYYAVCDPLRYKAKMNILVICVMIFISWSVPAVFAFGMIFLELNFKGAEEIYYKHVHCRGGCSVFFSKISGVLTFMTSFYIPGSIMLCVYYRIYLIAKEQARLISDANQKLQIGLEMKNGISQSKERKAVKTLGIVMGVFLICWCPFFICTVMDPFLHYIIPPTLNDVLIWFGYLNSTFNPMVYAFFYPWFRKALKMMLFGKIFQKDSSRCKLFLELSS

[20] = target: T4, Trace amine-associated receptor 1; experiment: Counterscreen for agonists of the human trace amine associated receptor 1 (hTAAR1): Fluorescence-based cell-based high throughput dose response assay to identify hTAAR1 agonist that also desensitize TAAR1 receptor response.; format: functional
cells [21] = format: functional, cell-based; remark: listed apart in the source
[22] = target: T5, Fructose-bisphosphate aldolase (Mycobacterium tuberculosis, UniProt P9WQA3); experiment: Fluorescence-based biochemical high throughput dose response assay for inhibitors of the fructose-bisphosphate aldolase (FBA) of M. tuberculosis.; format: functional
T5 sequence (P9WQA3 whole entry): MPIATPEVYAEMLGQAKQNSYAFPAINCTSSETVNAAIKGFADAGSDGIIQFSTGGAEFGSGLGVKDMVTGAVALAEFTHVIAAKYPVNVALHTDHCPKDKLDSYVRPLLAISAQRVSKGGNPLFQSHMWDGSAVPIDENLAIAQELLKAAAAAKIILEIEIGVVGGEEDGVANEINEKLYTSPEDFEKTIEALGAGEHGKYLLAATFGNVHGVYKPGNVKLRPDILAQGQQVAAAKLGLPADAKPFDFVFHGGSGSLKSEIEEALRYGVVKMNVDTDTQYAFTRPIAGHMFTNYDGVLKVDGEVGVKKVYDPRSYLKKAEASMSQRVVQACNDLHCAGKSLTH

[23] = THP-1 cell cytotoxicity, dose response, cytotoxicity control for non-replicating M. tuberculosis project (AID 489025); format: functional
[24] = blockers of HIV-1 envelope-mediated cell-cell fusion – cherry-pick, dose response (AID 652057); format: functional, cell-based
[25] = viability loss in CEM21 cells – cell-based, CellTiter-Glo luminescence, cherry-picked, cytotoxicity control for viral fusion inhibitor project, dose response (AID 652042); format: functional;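 note: potency for signal decrease meaning cytotoxicity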
[26] = blockers of HIV-1 ZM109 envelope-driven cell-cell fusion – HeLa effector, CEM target cells, luciferase, cherry-pick, dose response (AID 652058); format: functional, cell-based;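 note: luciferase signal from HIV-1 Env mediated cell-cell fusion of effector and target cells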
[27] = off-target signal loss in HeLa-CEM21 co-culture – HeLa F-luc CTL cells, cherry-picked, counter-screen for HIV-1 Env fusion inhibitor project, dose response (AID 652040); format: functional, cell-based;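 note: potency for signal decrease marking cytotoxic or nonspecific inhibition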
[28] = HIV-1 AD8 envelope cell-cell fusion blockers – cherry-pick, dose response (AID 652062); format: functional, cell-based;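 note: luciferase signal from cell-cell fusion driven by HIV-1 clade B AD8 Env; potency is for inhibitors of fusion seen as a drop in luminescence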
Beta-galactosidase = Beta-galactosidase (Escherichia coli, UniProt Q8VNN2); experiment: Dose response counterscreen for EBI2 assay utilizing the enzyme, b-galactosidase.; format: functional
Sequence of Beta-galactosidase (Q8VNN2 whole entry): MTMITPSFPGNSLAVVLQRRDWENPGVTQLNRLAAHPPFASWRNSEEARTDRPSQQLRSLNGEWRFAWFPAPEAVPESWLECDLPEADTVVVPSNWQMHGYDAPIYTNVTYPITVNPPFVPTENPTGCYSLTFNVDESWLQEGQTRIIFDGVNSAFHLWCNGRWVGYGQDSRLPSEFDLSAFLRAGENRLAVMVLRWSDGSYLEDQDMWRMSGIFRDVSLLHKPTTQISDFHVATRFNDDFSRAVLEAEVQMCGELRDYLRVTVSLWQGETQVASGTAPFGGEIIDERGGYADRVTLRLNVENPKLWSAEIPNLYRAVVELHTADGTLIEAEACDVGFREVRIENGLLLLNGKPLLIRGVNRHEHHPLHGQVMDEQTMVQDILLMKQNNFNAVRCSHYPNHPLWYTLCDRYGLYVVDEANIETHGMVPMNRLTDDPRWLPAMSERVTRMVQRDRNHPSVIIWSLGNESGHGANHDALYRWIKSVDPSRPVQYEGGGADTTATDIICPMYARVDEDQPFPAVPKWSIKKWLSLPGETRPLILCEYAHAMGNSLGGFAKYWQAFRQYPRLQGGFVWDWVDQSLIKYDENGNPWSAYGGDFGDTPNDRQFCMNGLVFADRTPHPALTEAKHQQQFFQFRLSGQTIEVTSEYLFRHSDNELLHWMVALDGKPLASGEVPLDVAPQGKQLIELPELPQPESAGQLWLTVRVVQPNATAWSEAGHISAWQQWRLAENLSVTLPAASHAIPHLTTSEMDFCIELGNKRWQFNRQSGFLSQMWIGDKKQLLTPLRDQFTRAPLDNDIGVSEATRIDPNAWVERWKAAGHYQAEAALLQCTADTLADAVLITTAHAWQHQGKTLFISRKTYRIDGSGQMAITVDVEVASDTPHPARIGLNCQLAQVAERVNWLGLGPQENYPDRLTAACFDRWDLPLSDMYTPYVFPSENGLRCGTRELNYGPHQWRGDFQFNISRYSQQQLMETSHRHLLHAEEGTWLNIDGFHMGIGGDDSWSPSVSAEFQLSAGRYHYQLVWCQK

[29] = intracellular Trypanosoma cruzi inhibitors in host cells – cell-based, plate reader, cherry-pick samples, set 3, dose response (AID 651818); format: functional;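 note: compounds incubated with infected cells for about four days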

Cc1cc2n(n1)C(c1c[nH]c3ccccc13)Nc1ccccc1-2 (stereo not drawn)
EC50 [1]: 8.99 µM (active)
EC50 (Streptokinase A): 18.1 µM (active)
EC50 [2]: 12 µM (active)
EC50 [3]: 12.9 µM (active)
EC50 (Streptococcus): > 150 µM (not active)
AC50 [4]: 6.08 µM (active)

Cc1ccc(-c2csc(N3CCN(CCCn4c(-c5ccncc5)nc5ccccc54)CC3)n2)cc1
EC50 (HEK293 [5]): 6.11 µM (active)
IC50 (HEK293 [6]): 4.3 µM (active)
IC50 (HEK293 [7]): 11.4 µM (active)
EC50 [8]: 12.3 µM (active)
IC50 (HEK293 [9]): 4.62 µM (active)
IC50 (HEK293 [10]): > 20 µM (inactive)
CC50 [11]: > 40 µM (active)

C/C(=N/NC(=O)c1cc(C(C)C)n[nH]1)c1cccs1
EC50 [12]: > 67.6 µM (inactive)

Clc1cccc(N/N=C/c2ccc(N3CCOCC3)s2)c1
IC50 [13]: 13.4 µM (active)
CC50 [14]: 83.7 µM (active)
IC50 [15]: 71.3 µM (active)

Cc1ccnc(NC(=O)CCNS(=O)(=O)c2ccc(C)c(C)c2)c1
EC50 [12]: > 67.6 µM (inactive)

Oc1ccc(CN2CCN(c3ncccn3)CC2)cc1
EC50 (Mu-type opioid receptor): 92.4 µM (inactive)
EC50 [16]: 0.496 µM (active)

O=C(C[C@H]1C[C@@H]2c3cc(NC(=O)c4ccc5c(c4)OCO5)ccc3O[C@@H]2[C@@H](CO)O1)NCc1ccc(Oc2ccccc2)cc1
AC50 [17]: 28.6 µM (active)

O=C(Oc1cccc2cccnc12)c1cccs1
EC50 [2]: 3.46 µM (active)
EC50 [3]: 4.38 µM (active)

Nc1sc2c(c1C(=O)NCCc1ccccc1)CCCC2
IC50 (cells [18]): > 29.9 µM (inactive)
EC50 [19]: 1.35 µM (active)
IC50 [20]: 4.88 µM (active)
EC50 (cells [21]): > 29.9 µM (inactive)

Cc1ccc(C(=O)CC(SCC(=O)O)c2ccc([N+](=O)[O-])cc2)cc1 (stereo not drawn)
CC50 [11]: 30.6 µM (active)

O=C(c1cccc(C(=O)N(c2ccccn2)C2CCCCC2)c1)N(c1ccccn1)C1CCCCC1
EC50 (Mu-type opioid receptor): 92.5 µM (inactive)
EC50 [16]: 76.1 µM (inactive)

COc1ccc(C2Nc3ccccc3C(=O)N2NS(C)(=O)=O)c(OC)c1 (stereo not drawn)
IC50 [22]: > 1.11 µM (active)

Cc1cc(OCCOCCNCc2ccccc2)ccc1C(C)C
CC50 [23]: > 40 µM (active)
AC50 [24]: 1.55 µM (active)
AC50 [25]: 45.2 µM (active)
AC50 [26]: 1.86 µM (active)
AC50 [27]: 2.26 µM (active)
AC50 [28]: 4.8 µM (active)

O=C(COc1ccc(Br)cc1)N1CCN(Cc2ccc3c(c2)OCO3)CC1
IC50 (Beta-galactosidase): > 80 µM (inactive)

CN(C)c1ccc2c(c1)[C@@H]1C[C@@H](CC(=O)NC3CCCCC3)O[C@@H](CO)[C@@H]1O2
AC50 [17]: 20.2 µM (active)

CCOC(=O)N1CCN(CC(O)COC2CC(C)CCC2C(C)C)CC1 (stereo not drawn)
IC50 [22]: > 9.99 µM (inactive)

COc1cc(/C=N/n2c(-c3ccc4c(c3)NC(=O)CO4)cs/c2=N\c2cccc(C)c2)ccc1O
CC50 [11]: 25 µM (active)

CN(C)C=O.O=C(/C=C/c1cccc(F)c1)Nc1ccc(S(=O)(=O)Nc2ncccn2)cc1
IC50 [22]: > 9.99 µM (inactive)

CCOC(=O)C1(CCOc2ccccc2)CCN(C(=O)c2ccc(-n3cccn3)cc2)CC1
IC50 (Beta-galactosidase): > 80 µM (inactive)

COc1cc2c(cc1NC(=S)NC(=O)/C=C/c1ccco1)oc1ccccc12
IC50 (Beta-galactosidase): > 80 µM (inactive)

C[C@@H]1CN([C@@H](C)CO)C(=O)c2cccc(NC(=O)c3ccc(-c4nccs4)cc3)c2O[C@H]1CN(C)C(=O)Nc1ccc(C(F)(F)F)cc1
AC50 [29]: 3.55 µM (active)
AC50 [17]: 6.3 µM (active)

O=[N+]([O-])c1ccc2c(c1)Nc1nc3ccccc3nc1N2
EC50 [12]: > 67.5 µM (inactive)

CCCC[C@@H]1CNCCN1CCc1cccc2ccccc12
IC50 (cells [18]): > 29.9 µM (inactive)
EC50 [19]: 4.01 µM (active)
IC50 [20]: 3.52 µM (active)
EC50 (cells [21]): > 29.9 µM (inactive)

COc1cccc(-n2cc(CNCc3cn(C)nc3-c3ccccc3F)cn2)c1
EC50 (Mu-type opioid receptor): 92.5 µM (inactive)
EC50 [16]: 0.772 µM (active)
